Experimental data reported in ChEMBL document CHEMBL4831545, “Hormesis Effect of Berberine against Klebsiella pneumoniae Is Mediated by Up-Regulation of the Efflux Pump KmrA” (J Nat Prod, 2021).
Active and inactive are the calls of the source. The calls are words filed in the database; no cut-off is given here.

Key:
Klebsiella pneumoniae [1] = assay: Hormesis activity against Klebsiella pneumonia assessed as inhibition of bacterial growth at 12 ug/ml measured after 24 hrs by OD600 based analysis; format: functional, organism-based; conditions: dose 12.0 µg/ml
[2] = Upregulation of efflux pump regulator gene expression in Klebsiella pneumoniae at 3 ug/ml incubated for 12 hrs by transcriptome analysis; format: ADME; conditions: dose 3 µg/ml
[3] = Upregulation of KmrA promoter activity in Klebsiella pneumoniae assessed as increase in beta-galactosidase activity at 6 to 50 ug/ml by LacZ based OD600 analysis; format: ADME; conditions: dose 6-50 µg/ml
Klebsiella pneumoniae [4] = assay: Hormesis activity against Klebsiella pneumonia assessed as promotion of bacterial growth by measuring increase in final OD600 at 3 ug/ml measured for 24 hrs in presence of 2 ug/ml tetracycline by OD600 based analysis; format: organism-based; conditions: in vivo, at 3 µg/mL
Klebsiella pneumoniae [5] = assay: Hormesis activity against Klebsiella pneumoniae assessed as promotion of bacterial growth at 3 to 6 ug/ml measured for 24 hrs in presence of efflux pump inhibitor, CCCP by OD600 based analysis; format: ADME, organism-based; conditions: in vivo, dose 3-6 µg/ml
Acinetobacter baumannii [6] = assay: Hormesis activity against Acinetobacter baumannii assessed as promotion of bacterial growth by measuring prolonged logarithmic growth phase at 3 to 50 ug/ml measured for 24 hrs by OD600 based analysis; format: organism-based; conditions: in vivo, dose 3-50 µg/ml
Acinetobacter baumannii [7] = assay: Hormesis activity against Acinetobacter baumannii assessed as promotion of bacterial growth at 3 to 50 ug/ml measured for 24 hrs in presence of 80 to 120 ug/ml tetracycline by OD600 based analysis; format: organism-based; conditions: in vivo, dose 3-50 µg/ml
Klebsiella pneumoniae [8] = assay: Hormesis activity against Klebsiella pneumoniae assessed as increase in antibiotic MIC by measuring streptomycin MIC at 3 ug/ml incubated for 12 hrs by OD600 based analysis (reference value: 0.78125 ug/ml); format: ADME, organism-based; conditions: in vivo, dose 3 µg/ml
Klebsiella pneumoniae [9] = assay: Hormesis activity against Klebsiella pneumoniae assessed as increase in antibiotic MIC by measuring hygromycinMIC at 3 ug/ml incubated for 12 hrs by OD600 based analysis (reference value: 12.5 ug/ml); format: ADME, organism-based; conditions: in vivo, dose 3 µg/ml
Klebsiella pneumoniae [10] = assay: Hormesis activity against Klebsiella pneumoniae assessed as increase in antibiotic MIC by measuring meropenem MIC at 3 ug/ml incubated for 12 hrs by OD600 based analysis (reference value: 0.39625 ug/ml); format: ADME, organism-based; conditions: in vivo, dose 3 µg/ml
Klebsiella pneumoniae [11] = assay: Hormesis activity against Klebsiella pneumoniae assessed as increase in antibiotic MIC by measuring cefotaxime MIC at 3 ug/ml incubated for 12 hrs by OD600 based analysis (reference value: 0.39625 ug/ml); format: ADME, organism-based; conditions: in vivo, dose 3 µg/ml
Klebsiella pneumoniae [12] = assay: Hormesis activity against Klebsiella pneumoniae deficient in KmrA gene expression assessed as increase in antibiotic MIC by measuring tetracycline MIC at 3 ug/ml incubated for 12 hrs by OD600 based analysis (reference value: 6 ug/ml); format: ADME, organism-based; conditions: in vivo, dose 3 µg/ml
Klebsiella pneumoniae [13] = assay: Hormesis activity against Klebsiella pneumoniae deficient in KmrA gene expression assessed as increase in antibiotic MIC by measuring azithromycin MIC at 3 ug/ml incubated for 12 hrs by OD600 based analysis (reference value: 0.78125 ug/ml); format: ADME, organism-based; conditions: in vivo, dose 3 µg/ml
Klebsiella pneumoniae [14] = assay: Hormesis activity against Klebsiella pneumoniae deficient in KmrA gene expression assessed as increase in antibiotic MIC by measuring hygromycinMIC at 3 ug/ml incubated for 12 hrs by OD600 based analysis (reference value: 12.5 ug/ml); format: ADME, organism-based; conditions: in vivo, dose 3 µg/ml
Klebsiella pneumoniae [15] = assay: Hormesis activity against Klebsiella pneumoniae deficient in KmrA gene expression assessed as increase in antibiotic MIC by measuring cefotaxime MIC at 3 ug/ml incubated for 12 hrs by OD600 based analysis (reference value: 0.39625 ug/ml); format: ADME, organism-based; conditions: in vivo, dose 3 µg/ml
Klebsiella pneumoniae [16] = assay: Hormesis activity against Klebsiella pneumoniae deficient in KmrA gene expression assessed as increase in antibiotic MIC by measuring atreonamMIC at 3 ug/ml incubated for 12 hrs by OD600 based analysis (reference value: 1.5625 ug/ml); format: ADME, organism-based; conditions: in vivo, dose 3 µg/ml
Klebsiella pneumoniae [17] = assay: Hormesis activity against overnight compound-treated Klebsiella pneumoniae deficient in KmrA gene expression assessed as increase in antibiotic MIC by measuring azithromycin MIC at 3 ug/ml incubated for 12 hrs by OD600 based analysis (reference value: 0.78125 ug/ml); format: ADME, organism-based; conditions: in vivo, dose 3 µg/ml
Klebsiella pneumoniae [18] = assay: Hormesis activity against overnight compound-treated Klebsiella pneumoniae deficient in KmrA gene expression assessed as increase in antibiotic MIC by measuring chloramphenicol MIC at 3 ug/ml incubated for 12 hrs by OD600 based analysis (reference value: 6.25 ug/ml); format: ADME, organism-based; conditions: in vivo, dose 3 µg/ml
Klebsiella pneumoniae [19] = assay: Hormesis activity against overnight compound-treated Klebsiella pneumoniae deficient in KmrA gene expression assessed as increase in antibiotic MIC by measuring hygromycinMIC at 3 ug/ml incubated for 12 hrs by OD600 based analysis (reference value: 12.5 ug/ml); format: ADME, organism-based; conditions: in vivo, dose 3 µg/ml
Klebsiella pneumoniae [20] = assay: Hormesis activity against overnight compound-treated Klebsiella pneumoniae deficient in KmrA gene expression assessed as increase in antibiotic MIC by measuring ampicillin MIC at 3 ug/ml incubated for 12 hrs by OD600 based analysis (reference value: 12.5 ug/ml); format: ADME, organism-based; conditions: in vivo, dose 3 µg/ml
Klebsiella pneumoniae [21] = assay: Hormesis activity against overnight compound-treated Klebsiella pneumoniae deficient in KmrA gene expression assessed as increase in antibiotic MIC by measuring atreonamMIC at 3 ug/ml incubated for 12 hrs by OD600 based analysis (reference value: 1.5625 ug/ml); format: ADME, organism-based; conditions: in vivo, dose 3 µg/ml
Enterobacter cloacae [22] = assay: Hormesis activity against Enterobacter cloacae assessed as increase in antibiotic MIC by measuring rifampicin MIC at 3 ug/ml incubated for 12 hrs by OD600 based analysis (reference value: 25 ug/ml); format: ADME, organism-based; conditions: in vivo, dose 3 µg/ml
Enterobacter cloacae [23] = assay: Hormesis activity against Enterobacter cloacae assessed as increase in antibiotic MIC by measuring hygromycinMIC at 3 ug/ml incubated for 12 hrs by OD600 based analysis (reference value: 25 ug/ml); format: ADME, organism-based; conditions: in vivo, dose 3 µg/ml
Enterobacter cloacae [24] = assay: Hormesis activity against overnight compound-treated Enterobacter cloacae assessed as increase in antibiotic MIC by measuring tetracycline MIC at 3 ug/ml incubated for 12 hrs by OD600 based analysis (reference value: 8 ug/ml); format: ADME, organism-based; conditions: in vivo, dose 3 µg/ml
Enterobacter cloacae [25] = assay: Hormesis activity against overnight compound-treated Enterobacter cloacae assessed as increase in antibiotic MIC by measuring streptomycin MIC at 3 ug/ml incubated for 12 hrs by OD600 based analysis (reference value: 12.5 ug/ml); format: ADME, organism-based; conditions: in vivo, dose 3 µg/ml
Acinetobacter baumannii [26] = assay: Hormesis activity against Acinetobacter baumannii assessed as increase in antibiotic MIC by measuring hygromycinMIC at 3 ug/ml incubated for 12 hrs by OD600 based analysis (reference value: 125 ug/ml); format: ADME, organism-based; conditions: in vivo, dose 3 µg/ml
Acinetobacter baumannii [27] = assay: Hormesis activity against overnight-compound treated Acinetobacter baumannii assessed as increase in antibiotic MIC by measuring rifampicin MIC at 3 ug/ml incubated for 12 hrs by OD600 based analysis (reference value: 1.5625 ug/ml); format: ADME, organism-based; conditions: in vivo, dose 3 µg/ml
Acinetobacter baumannii [28] = assay: Hormesis activity against overnight-compound treated Acinetobacter baumannii assessed as increase in antibiotic MIC by measuring azithromycin MIC at 3 ug/ml incubated for 12 hrs by OD600 based analysis (reference value: 200 ug/ml); format: ADME, organism-based; conditions: in vivo, dose 3 µg/ml
Acinetobacter baumannii [29] = assay: Hormesis activity against overnight-compound treated Acinetobacter baumannii assessed as increase in antibiotic MIC by measuring ciprofloxacin MIC at 3 ug/ml incubated for 12 hrs by OD600 based analysis (reference value: 0.3125 ug/ml); format: ADME, organism-based; conditions: in vivo, dose 3 µg/ml

Activity (Klebsiella pneumoniae [4]): 23%
MIC (Klebsiella pneumoniae [8]): 1.5625 µg/mL
MIC (Klebsiella pneumoniae [9]): 12.5 µg/mL
MIC (Klebsiella pneumoniae [10]): 0.3962 µg/mL
MIC (Klebsiella pneumoniae [11]): 0.3962 µg/mL
MIC (Klebsiella pneumoniae [12]): 6 µg/mL
MIC (Klebsiella pneumoniae [13]): 0.7812 µg/mL
MIC (Klebsiella pneumoniae [14]): 12.5 µg/mL
MIC (Klebsiella pneumoniae [15]): 0.3962 µg/mL
MIC (Klebsiella pneumoniae [16]): 1.5625 µg/mL
MIC (Klebsiella pneumoniae [17]): 1.5625 µg/mL
MIC (Klebsiella pneumoniae [18]): 6.25 µg/mL
MIC (Klebsiella pneumoniae [19]): 12.5 µg/mL
MIC (Klebsiella pneumoniae [20]): 12.5 µg/mL
MIC (Klebsiella pneumoniae [21]): 1.5625 µg/mL
MIC (Enterobacter cloacae [22]): 25 µg/mL
MIC (Enterobacter cloacae [23]): 25 µg/mL
MIC (Enterobacter cloacae [24]): 16 µg/mL
MIC (Enterobacter cloacae [25]): 25 µg/mL
MIC (Acinetobacter baumannii [26]): 250 µg/mL
MIC (Acinetobacter baumannii [27]): 6.25 µg/mL
MIC (Acinetobacter baumannii [28]): 400 µg/mL
MIC (Acinetobacter baumannii [29]): 0.625 µg/mL
SMILES: COc1ccc2cc3[n+](cc2c1OC)CCc1cc2c(cc1-3)OCO2 [BERBERINE]
Activity (Klebsiella pneumoniae [1]): Active
Activity [2]: Toxic
Activity [3]: Toxic
Activity (Klebsiella pneumoniae [5]): Non-Toxic
Activity (Acinetobacter baumannii [6]): Toxic
Activity (Acinetobacter baumannii [7]): Toxic
